Values quoted from earlier work in patent US20250221936A1, “ENGINEERED HEMICHANNELS, ENGINEERED VESICLES, AND USES THEREOF” (VIRGINIA TECH INTELLECTUAL PROPERTIES, INC., priority 2018, published 2025).
Entries after “also recorded” stand apart in the source; their conditions may differ.

Tested on: silicon wafer implants
Conditions: 24 hours; cited from earlier work

Compound	inflammatory infiltrate
Nc1ncnc2c1ncn2[C@@H]1O[C@H](COP(=O)(O)OP(=O)(O)OP(=O)(O)O)[C@@H](O)[C@H]1O [ATP]	profound increase in inflammatory infiltrate; also recorded: more inflammatory infiltrate than the surgery alone
apyrase	significantly reduced the inflammatory infiltrate
